Source: patent US20110039762A1, “TARGETED ANTIMICROBIAL MOIETIES” (C3 JIAN, INC., priority 2009, published 2011)
Entries after “also recorded” stand apart in the source; their conditions may differ. Ends that are not written are not given here.

Key:
S. pneumoniae = test: Kill or inhibit growth/proliferation; morphology, biofilm and growth disruption (Tables 5, 6); type: cell-based, Streptococcus pneumoniae; set-up: key: A: Peptide aggregates; B: Less hyphal formation; Clumps; Diffuse clumps and small polyps; F: Diffuse growth; H: Thin; I: Growth inhibition; Microcolony formation; Rippled; Small polyps; Thick; W: Halo formation on top, microlonies on bottom; further: test concentration or dose not given here
B. subtilis = test: as above; type: cell-based, Bacillus subtilis; set-up: key: A: Peptide aggregates; B: Less hyphal formation; Clumps; Diffuse clumps and small polyps; F: Diffuse growth; H: Thin; I: Growth inhibition; Microcolony formation; Rippled; Small polyps; Thick; W: Halo formation on top, microlonies on bottom; further: test concentration or dose not given here
[1] = system: microorganisms (e.g., bacteria, yeasts, fungi); test: Targeting peptide binding to target microorganisms (Table 3); conditions: preferably 1x PBS; for Target(s) (microorganisms bound by the targeting peptide): peptide binding in aqueous buffers varied by peptide solubility
S. epidermidis = test: Kill or inhibit growth/proliferation; morphology, biofilm and growth disruption (Tables 5, 6); type: cell-based, Staphylococcus epidermidis; set-up: key: A: Peptide aggregates; B: Less hyphal formation; Clumps; Diffuse clumps and small polyps; F: Diffuse growth; H: Thin; I: Growth inhibition; Microcolony formation; Rippled; Small polyps; Thick; W: Halo formation on top, microlonies on bottom; further: test concentration or dose not given here
C. jejuni = test: as above; type: cell-based, Campylobacter jejuni; set-up: key: A: Peptide aggregates; B: Less hyphal formation; Clumps; Diffuse clumps and small polyps; F: Diffuse growth; H: Thin; I: Growth inhibition; Microcolony formation; Rippled; Small polyps; Thick; W: Halo formation on top, microlonies on bottom; further: test concentration or dose not given here
MRSA = test: as above; type: cell-based, Methicillin-resistant Staphylococcus aureus; set-up: key: A: Peptide aggregates; B: Less hyphal formation; Clumps; Diffuse clumps and small polyps; F: Diffuse growth; H: Thin; I: Growth inhibition; Microcolony formation; Rippled; Small polyps; Thick; W: Halo formation on top, microlonies on bottom
C. albicans = test: as above; type: cell-based, Candida albicans; set-up: key: A: Peptide aggregates; B: Less hyphal formation; Clumps; Diffuse clumps and small polyps; F: Diffuse growth; H: Thin; I: Growth inhibition; Microcolony formation; Rippled; Small polyps; Thick; W: Halo formation on top, microlonies on bottom
microorganisms = test: Peptides having multiple activities (targeting/binding, antimicrobial, growth or phenotype altering)
Description: In certain embodiments, peptides described herein can have multiple activities. Thus for example, a peptide can have both binding/targeting activity and antimicrobial activity. Such peptides can be used, e.g., in a chimeric construct, for any or all of these properties. Thus, for example, a peptide designated “B” in Table 8 can be used as a targeting peptide. If it is also designated G or M it can also be used for antimicrobial activity.

M. luteus = test: Kill or inhibit growth/proliferation; morphology, biofilm and growth disruption (Tables 5, 6); type: cell-based, Micrococcus luteus; set-up: key: A: Peptide aggregates; B: Less hyphal formation; Clumps; Diffuse clumps and small polyps; F: Diffuse growth; H: Thin; I: Growth inhibition; Microcolony formation; Rippled; Small polyps; Thick; W: Halo formation on top, microlonies on bottom; further: test concentration or dose not given here
E. faecalis = test: as above; type: cell-based, Enterococcus faecalis; set-up: key: A: Peptide aggregates; B: Less hyphal formation; Clumps; Diffuse clumps and small polyps; F: Diffuse growth; H: Thin; I: Growth inhibition; Microcolony formation; Rippled; Small polyps; Thick; W: Halo formation on top, microlonies on bottom; further: test concentration or dose not given here
E. coli = test: as above; type: cell-based, Escherichia coli; set-up: key: A: Peptide aggregates; B: Less hyphal formation; Clumps; Diffuse clumps and small polyps; F: Diffuse growth; H: Thin; I: Growth inhibition; Microcolony formation; Rippled; Small polyps; Thick; W: Halo formation on top, microlonies on bottom
C. jeikeium = test: as above; type: cell-based, Corynebacterium jeikeium; set-up: key: A: Peptide aggregates; B: Less hyphal formation; Clumps; Diffuse clumps and small polyps; F: Diffuse growth; H: Thin; I: Growth inhibition; Microcolony formation; Rippled; Small polyps; Thick; W: Halo formation on top, microlonies on bottom; further: test concentration or dose not given here
[2] = microorganism(s) the targeting peptide binds, peptide binding conducted in aqueous buffers varied by peptide solubility
Wherever Organism, effect (morphology, biofilm and growth disruption) is given: test concentration or dose not given here.
Wherever Organism, effect is given: test concentration or dose not given here.

Row | Substance | Organism, effect (S. pneumoniae) | Organism, effect (S. epidermidis) | Organism, effect (MRSA) | Organism, effect (C. albicans) | Activities (microorganisms) | Organism, effect (E. faecalis) | Target(s) (microorganisms bound by the targeting peptide) [1] | other results
1 | HCVIGNVVDIANLLKRRAVYRDIADVIKMR [PF-071] | S. pneumoniae (A) | S. epidermidis (R) | MRSA (C) | C. albicans (B) | G B | – | – | Organism, effect (B. subtilis): B. subtilis (D); Target(s) ([1]; microorganism the targeting peptide binds, binding in aqueous buffers varied by peptide solubility): S. epidermidis and E. coli and P. aeruginosa and C. albicans and MRSA and S. pneumoniae and E. faecalis; Organism, effect (C. jejuni): C. jejuni (A); Organism, effect (M. luteus): M. luteus (R)
2 | PF-057: peptide having multiple activities (chain 1 TMIVISIPRFEEYMKARHKKWM; chain 2 TMIVISIPRFEEYMKARHKKWM; Peptide with targeting and/or antimicrobial activity) | S. pneumoniae (R) | S. epidermidis (D) | MRSA (M) | C. albicans (A) | G B | E. faecalis (A) | – | Organism, effect (C. jejuni): C. jejuni (D); Organism, effect (E. coli): E. coli (M); Organism, effect (C. jeikeium): C. jeikeium (A); Organism, effect (M. luteus): M. luteus (C)
3 | PF-175: peptide having multiple activities (RRRPAGQRPEKASQAMIAA; Peptide with targeting and/or antimicrobial activity) | S. pneumoniae (A) | – | – | C. albicans (B) | G B | – | – | Organism, effect (B. subtilis): B. subtilis (D); Target(s) ([1]; microorganism(s) the targeting peptide binds, binding in aqueous buffers depending on peptide solubility): S. epidermidis; also recorded: E. faecalis; Organism, effect (C. jejuni): C. jejuni (M); Organism, effect (M. luteus): M. luteus (S)
4 | PF-426: peptide having multiple activities (MLQKYTQMISVTKCIITKNKKTQENVDAYN; Peptide with targeting and/or antimicrobial activity) | S. pneumoniae (D) | S. epidermidis (D) | MRSA (D) | C. albicans (A) | G B | E. faecalis (D) | – | Target(s) [1, 2]: S. epidermidis and E. coli and P. aeruginosa and C. albicans and MRSA and S. pneumoniae and E. faecalis and C. jeikeium; Organism, effect (C. jejuni): C. jejuni (D); Organism, effect (E. coli): E. coli (C)
5 | PF-526: peptide having multiple activities (chain 1 VLLLFIFQPFQKQLL-NH2; chain 2 VLLLFIFQPFQKQLL-NH2) | S. pneumoniae (R) | S. epidermidis (C) | MRSA (C) | C. albicans (C) | G B | – | – | Organism, effect (E. coli): E. coli (R)
6 | PF-528: peptide having multiple activities (chain 1 LVDVVVLIRRHLPKSCS-NH2; chain 2 LVDVVVLIRRHLPKSCS-NH2; cysteine pairing not given here) | S. pneumoniae (R) | S. epidermidis (H) | MRSA (H) | C. albicans (C) | G B | – | – | Target(s) [1, 2]: S. epidermidis and P. aeruginosa and C. albicans and MRSA and S. pneumoniae and E. faecalis; Organism, effect (E. coli): E. coli (H)
7 | PF-617: peptide having multiple activities (PMNAAEPE; Peptide with targeting and/or antimicrobial activity) | S. pneumoniae (I) | – | – | C. albicans (H) | G B | E. faecalis (H) | P. aeruginosa; also recorded: C. albicans | –
8 | PF-627: peptide having multiple activities (INDLLSYFTLHEK; Peptide with targeting and/or antimicrobial activity) | S. pneumoniae (I) | S. epidermidis (H) | MRSA (R) | C. albicans (B) | G B | E. faecalis (H) | S. epidermidis and P. aeruginosa and MRSA and S. pneumoniae and E. faecalis and C. jeikeium | –
9 | PF-636: peptide having multiple activities (chain 1 LVRLA; chain 2 LVRLA; Peptide with targeting and/or antimicrobial activity) | S. pneumoniae (H) | – | – | C. albicans (B) | G B | E. faecalis (H) | S. epidermidis and C. albicans and MRSA and S. pneumoniae and E. faecalis | Organism, effect (B. subtilis): B. subtilis (H)
10 | PF-639: peptide having multiple activities (chain 1 QATQIKSWIDRLLVSED; chain 2 QATQIKSWIDRLLVSED; Peptide with targeting and/or antimicrobial activity) | S. pneumoniae (I) | – | MRSA (R) | C. albicans (B) | G B | E. faecalis (H) | S. pneumoniae; also recorded: C. jeikeium | –
11 | PF-640: peptide having multiple activities (chain 1 MGDINRNF; chain 2 MGDINRNF; Peptide with targeting and/or antimicrobial activity) | S. pneumoniae (I) | – | – | C. albicans (B) | G B | E. faecalis (H) | C. albicans | –
12 | PF-684 (chain 1 RKLSLASGFALWRRSLV; chain 2 RKLSLASGFALWRRSLV; Peptide with targeting and/or antimicrobial activity) | – | – | – | – | – | – | Mycobacteria spp | Organism, effect (morphology, biofilm and growth disruption) (S. pneumoniae): S. pneumoniae (C); Organism, effect (morphology, biofilm and growth disruption) (E. faecalis): E. faecalis (A); Organism, effect (morphology, biofilm and growth disruption) (C. albicans): C. albicans (B)
13 | PF-686: peptide having multiple activities (chain 1 LAVLMGYIGYRGWSGKRHINRQ; chain 2 LAVLMGYIGYRGWSGKRHINRQ; Peptide with targeting and/or antimicrobial activity) | – | – | – | – | G B | – | M. smegmatis | Organism, effect (morphology, biofilm and growth disruption) (S. pneumoniae): S. pneumoniae (A); Organism, effect (morphology, biofilm and growth disruption) (B. subtilis): B. subtilis (I); Organism, effect (morphology, biofilm and growth disruption) (E. faecalis): E. faecalis (R); Organism, effect (morphology, biofilm and growth disruption) (S. epidermidis): S. epidermidis (H); Organism, effect (morphology, biofilm and growth disruption) (MRSA): MRSA (M); Organism, effect (morphology, biofilm and growth disruption) (C. albicans): C. albicans (B)
14 | PF-698 (chain 1 SSGRAGVKCRRPTGR; chain 2 SSGRAGVKCRRPTGR; Peptide with targeting and/or antimicrobial activity) | – | – | – | – | – | – | Mycobacteria spp | Organism, effect (morphology, biofilm and growth disruption) (S. pneumoniae): S. pneumoniae (A); Organism, effect (morphology, biofilm and growth disruption) (E. faecalis): E. faecalis (A); Organism, effect (morphology, biofilm and growth disruption) (C. albicans): C. albicans (H)
